Data published in US20060172361A1, “Assay for detection of translocase enzyme activity in drug screening” (AstraZeneca AB, priority 2000, published 2006).

Assays:
transferase enzyme = experiment: Scintillation proximity assay of transferase alone, with pre-formed Lipid I and Tunicamycin block, using E. coli AMA1004 ΔponB membranes (Example 4); assay type: biochemical, Escherichia coli; settings: after subtracting 0% reaction readings
Method: Microbiol., (1985), 131, 2839-2845. The plate was incubated for 20 min at 37° C.
(ii) Tunicamycin was then added to a final concentration of 10 μg/ml, followed by a test compound (e.g. Vancomycin or Nisin) of varying concentration in dimethyl sulphoxide. Nisin and Vancomycin are known antagonists of the transferase enzyme.
(iii) Then to the reaction well, in a 5 μl volume, the substrate for the transferase was added: 2.5 μM tritiated UDP-N-acetyl glucosamine (0.5 μCi per well). The microtitre plate was incubated for 5 min at 37° C.
(iv) The reaction was terminated by diluting out the radiolabel i.e. by addition of 25 μl of 200 μM unlabelled UDP-GlcNAc.

[1] = tested on: translocase and transferase enzymes; experiment: Scintillation proximity assay of Lipid II synthesis (translocase plus transferase) with lysozyme-prepared E. coli AMA1004 membranes (Example 3); settings: 100 μM test compound; after subtracting 0% reaction readings
Method: (i) The wells of a microtitre plate were individually filled with a total volume of 25 μl of a reaction mixture comprising an aqueous buffer solution of 50 mM HEPES-ammonia (N-[2-Hydroxyethyl]piperazine-N′-[2-ethanesulfonic acid]) (pH 7.5), and 10 mM magnesium chloride 15 μM UDP-MurNAc-L-alanine-γ-D-glutamic acid-m-diaminopimelic acid-D-alanine-D-alanine, 2.5 μM tritiated UDP-N-acetyl glucosamine (0.2 μCi per well), 6 μg of Escherichia coli AMA1004 cell membranes prepared as described below and a solution of test compound (e.g. Tunicamycin, Vancomycin) of varying concentration in 4% dimethylsulphoxide.
Four wells of the microtitre plate were used as controls: two wells contained no UDP-N-acetylmuramylpentapeptide (0% reaction controls) and a further two wells contained no test compound (100% reaction controls).
If the purpose of the screen is to study the effect of an inhibitor of the transferase or translocase the test compound is added along with the substrates at step (i).
The E. coli membranes were prepared as follows.
Four to five colonies of the bacteria from an LB (Luria Bertani medium) agar plate were inoculated into 5 ml LB-broth and grown during the day (for 6-8 hours) at 37° C. […]
The plate was left for 3 hours/overnight at room temperature before being counted in the “Microbeta Trilux” counter.

`CN[C@H](CC(C)C)C(=O)N[C@H]1C(=O)N[C@@H](CC(N)=O)C(=O)N[C@H]2C(=O)N[C@H]3C(=O)N[C@H](C(=O)N[C@H](C(=O)O)c4cc(O)cc(O)c4-c4cc3ccc4O)[C@H](O)c3ccc(c(Cl)c3)Oc3cc2cc(c3O[C@@H]2O[C@H](CO)[C@@H](O)[C@H](O)[C@H]2O[C@H]2C[C@](C)(N)[C@H](O)[C@H](C)O2)Oc2ccc(cc2Cl)[C@H]1O` [Vancomycin] was tested, and the “% Enzyme Activity” value (transferase enzyme; 100 μM test compound) was “˜50%” and the “% Inhibition” value [1] was 82%.

For Nisin, the “% Enzyme Activity” value (transferase enzyme; 10 μg/ml test compound) was “˜30%”.
